The values below are quoted from earlier work in patent US20240156825A1, “USE OF SELECTIVE VEGFR2 AND FGFR1 INHIBITORS” (Fountain Therapeutics Inc., priority 2022, published 2024).

Read-outs that look alike come from different tables or passages of the source.

In series [1] the target is VEGFR2 (Homo sapiens, UniProt P35968). The conditions noted are these: reported IC50 to VEGFR2, read-out: VEGFR2 IC50_μM, cited from earlier work.
Series [2] deals with any gene target. The conditions noted are these: next lowest IC50 value to any gene target, read-out: Min IC50_μM, cited from earlier work.
Setting [3] is: Table 3, selective inhibitors of VEGFR2.

Sequence of VEGFR2 (P35968 20-1356, species assumed): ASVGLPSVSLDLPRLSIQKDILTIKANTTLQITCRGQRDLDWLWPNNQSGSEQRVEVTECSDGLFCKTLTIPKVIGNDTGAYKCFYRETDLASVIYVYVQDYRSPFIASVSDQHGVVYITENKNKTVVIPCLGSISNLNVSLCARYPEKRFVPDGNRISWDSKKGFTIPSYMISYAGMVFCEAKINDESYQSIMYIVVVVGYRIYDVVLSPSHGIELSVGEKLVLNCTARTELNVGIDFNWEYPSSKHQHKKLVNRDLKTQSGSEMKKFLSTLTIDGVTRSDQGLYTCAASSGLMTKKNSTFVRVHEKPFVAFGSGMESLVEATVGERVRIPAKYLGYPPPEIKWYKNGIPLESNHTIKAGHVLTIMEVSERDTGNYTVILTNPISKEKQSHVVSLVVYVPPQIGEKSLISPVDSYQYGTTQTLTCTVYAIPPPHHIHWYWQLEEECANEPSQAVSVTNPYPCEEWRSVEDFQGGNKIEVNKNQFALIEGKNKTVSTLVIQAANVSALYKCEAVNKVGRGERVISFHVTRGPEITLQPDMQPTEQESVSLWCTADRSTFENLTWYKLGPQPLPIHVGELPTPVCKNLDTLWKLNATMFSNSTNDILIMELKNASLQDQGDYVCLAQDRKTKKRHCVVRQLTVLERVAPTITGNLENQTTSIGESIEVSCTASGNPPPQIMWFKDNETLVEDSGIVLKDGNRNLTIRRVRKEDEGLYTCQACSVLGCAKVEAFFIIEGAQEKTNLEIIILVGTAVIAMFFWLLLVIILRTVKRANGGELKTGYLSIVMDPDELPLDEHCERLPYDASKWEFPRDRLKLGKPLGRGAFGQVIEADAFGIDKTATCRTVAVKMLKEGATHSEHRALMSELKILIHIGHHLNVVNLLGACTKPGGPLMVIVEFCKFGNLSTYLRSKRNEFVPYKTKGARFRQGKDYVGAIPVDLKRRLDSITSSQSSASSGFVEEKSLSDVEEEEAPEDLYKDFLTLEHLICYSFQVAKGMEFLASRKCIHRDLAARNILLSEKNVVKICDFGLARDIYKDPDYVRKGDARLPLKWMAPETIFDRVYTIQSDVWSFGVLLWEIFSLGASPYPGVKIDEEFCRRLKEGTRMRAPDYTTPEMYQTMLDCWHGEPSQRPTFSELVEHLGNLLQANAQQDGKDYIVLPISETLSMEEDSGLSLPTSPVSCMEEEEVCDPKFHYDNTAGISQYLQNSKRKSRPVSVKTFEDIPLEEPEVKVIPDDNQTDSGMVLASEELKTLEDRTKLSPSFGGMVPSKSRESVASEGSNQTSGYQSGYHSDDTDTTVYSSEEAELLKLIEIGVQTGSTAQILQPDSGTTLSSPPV

As to `COc1cc2nccc(Oc3ccc4c(C(=O)NC(C)(C)C)cccc4c3)c2cc1OC` [compound 24823091], the IC50 is 1500 nM in series [1] and 3700 nM in series [2].
Take `COc1cc2ncnc(Oc3ccc4c(C(=O)NC5CC5)cccc4c3)c2cc1OC` [compound 24823093]: the figures for the IC50 in series [1] and in series [2] were 2.88 nM and 360 nM, respectively.
For `COc1cc2nccc(Oc3ccc4c(C(=O)NCC(F)(F)F)cccc4c3)c2cc1OC` [compound 24823250], the IC50 in series [1] is 3.8 nM; in series [2], 16 nM.
Turning to `COCCNC(=O)c1cccc2cc(Oc3ncnc4cc(OC)c(OC)cc34)ccc12` [compound 24823252], the IC50 was 314 nM in series [1] and 385 nM in series [2].
On to `COc1cc2nccc(Oc3ccc4c(C(=O)NC5CCC5)cccc4c3)c2cc1OC` [compound 24824448], for which the IC50 in series [1] was 1.3 nM; in series [2] it was 440 nM.
Regarding `COc1cc(C2=C(c3c[nH]c4ccccc34)CNC2=O)cc(OC)c1OC` [compound 24894117], the IC50 in series [1] was 31 nM; in series [2], 37 nM.
As to `COc1cc(C2=C(c3cn(COCC[Si](C)(C)C)c4ccccc34)CNC2=O)cc(OC)c1OC` [compound 24894886], the IC50 was 3100 nM in series [1] and 4500 nM in series [2].
Consider `COCn1cc(C2=C(c3cc(OC)c(OC)c(OC)c3)C(=O)NC2)c2ccccc21` [compound 24894887], for which the IC50 in series [1] is 2300 nM; in series [2] it was 3200 nM.
In the case of `COc1cc(C2=C(c3cn(COC(C)(C)C)c4ccccc34)CNC2=O)cc(OC)c1OC` [compound 24894992], the IC50 in series [1] (setting [3]) and in series [2] (Table 3) was 4400 nM each time.
Turning to `COc1cc(C2=C(c3cn(COCc4ccccc4)c4ccccc34)CNC2=O)cc(OC)c1OC` [compound 24894993], the IC50 in series [1] is 1600 nM; in series [2], 1700 nM.
As to `COc1cc(C2=C(c3cn(COC(C)C)c4ccccc34)CNC2=O)cc(OC)c1OC` [compound 24894996], the IC50 is 5200 nM in series [1] and 5300 nM in series [2].
For the compound `COc1cc(C2=C(c3cn(COc4ccccc4)c4ccccc34)CNC2=O)cc(OC)c1OC` [compound 24894997], the IC50 in series [1] was 1500 nM; in series [2] it was 1700 nM.
In the case of `C[C@@H](Nc1ncnc2[nH]c(-c3ccc(CN4CCN(CCCC(=O)NO)CC4)cc3)cc12)c1ccccc1` [compound 24900378], the IC50 in series [1] is 100 nM; in series [2], 1000 nM.
Consider `C[C@@H](Nc1ncnc2[nH]c(-c3ccc(CN4CCN(CCCCC(=O)NO)CC4)cc3)cc12)c1ccccc1` [compound 24900441], for which the IC50 in series [1] and in series [2] was 100 nM each time.
In the case of `C[C@@H](Nc1ncnc2[nH]c(-c3ccc(CN4CCN(CCCCCC(=O)NO)CC4)cc3)cc12)c1ccccc1` [compound 24900442], the IC50 in series [1] and in series [2] was 100 nM each time.
Consider `C[C@@H](Nc1ncnc2[nH]c(-c3ccc(CN4CCN(CCCCCCC(=O)NO)CC4)cc3)cc12)c1ccccc1` [compound 24900443], for which the IC50 in series [1] and in series [2] was 100 nM in each case.
As to `C[C@@H](Nc1ncnc2[nH]c(-c3ccc(OCCCC(=O)NO)cc3)cc12)c1ccccc1` [compound 24900506], the IC50 in series [1] and in series [2] was 100 nM each time.
Take `C[C@@H](Nc1ncnc2[nH]c(-c3ccc(OCCCCC(=O)NO)cc3)cc12)c1ccccc1` [compound 24900507]: the IC50 in series [1] and in series [2] was 100 nM each time.
`C[C@@H](Nc1ncnc2[nH]c(-c3ccc(NC(=O)CCCC(=O)NO)cc3)cc12)c1ccccc1` [compound 24900574]: the IC50 in series [1] and in series [2] was 100 nM each time.
With `C[C@@H](Nc1ncnc2[nH]c(-c3ccc(C(=O)NCCNCCCCCC(=O)NO)cc3)cc12)c1ccccc1` [compound 24900641], the IC50 in series [1] and in series [2] was 100 nM in each case.
For `C[C@@H](Nc1ncnc2[nH]c(-c3ccc(CNCCCCCC(=O)NO)cc3)cc12)c1ccccc1` [compound 24900643], the IC50 in series [1] and in series [2] was 100 nM each time.
In the case of `O=C(CCCCCN1CCN(Cc2ccc(-c3cc4c(NCc5ccccc5)ncnc4[nH]3)cc2)CC1)NO` [compound 24900714], the IC50 in series [1] (setting [3]) and in series [2] (Table 3) was 100 nM throughout.
Regarding `C[C@@H](Nc1ncnc2[nH]c(-c3ccc(C(=O)NO)cc3)cc12)c1ccccc1` [compound 24900715], the IC50 in series [1] (setting [3]) and in series [2] (Table 3) was 100 nM in each case.
`C[C@@H](Nc1ncnc2[nH]c(-c3ccc(C(=O)NO)cc3)cc12)c1ccc(F)cc1` [compound 24900772]: the IC50 in series [1] (setting [3]) and in series [2] (Table 3) was 100 nM in each case.
Turning to `Cc1nn(C)c2cc(N(C)c3ccnc(Nc4cccc(S(N)(=O)=O)c4)n3)ccc12` [compound 24949545], the values for the IC50 in series [1] and in series [2] were 36 nM and 1000 nM, respectively.
`CN(c1ccc2cn(C)nc2c1)c1ccnc(Nc2cccc(S(N)(=O)=O)c2)n1` [compound 24949548]: the values for the IC50 in series [1] and in series [2] were 7.6 nM and 2900 nM, respectively.
`Cc1c2ccc(N(C)c3ccnc(Nc4cccc(S(N)(=O)=O)c4)n3)cc2nn1C` [compound 24949700]: the IC50 in series [1] is 5.6 nM; in series [2] it was 1400 nM.
With `Cc1nc2ccc(N(C)c3ccnc(Nc4cccc(S(N)(=O)=O)c4)n3)cc2n1C` [compound 24949704], the results for the IC50 in series [1] and in series [2] were 63 nM and 1700 nM, respectively.
In the case of `O=C(CCCCCCCNC(=O)c1cc(Oc2ccc(NC(=O)Nc3ccc(Cl)c(C(F)(F)F)c3)cc2)ccn1)NO` [compound 25071593], the IC50 in series [1] and in series [2] was 100 nM throughout.
In the case of `O=C(CCCCCCNCc1cc(Oc2ccc(NC(=O)Nc3ccc(Cl)c(C(F)(F)F)c3)cc2)ccn1)NO` [compound 25072217], the IC50 in series [1] and in series [2] was 100 nM in each case.
Consider `O=C(CCCCCCCNCc1cc(Oc2ccc(NC(=O)Nc3ccc(Cl)c(C(F)(F)F)c3)cc2)ccn1)NO` [compound 25072218], for which the IC50 in series [1] and in series [2] was 100 nM in each case.
`CSc1cn2c(-c3cn[nH]c3)cnc2c(Nc2cc(C)ns2)n1` [compound 25094210]: the IC50 in series [1] was 36 nM; in series [2], 167 nM.
In the case of `Cc1cn2c(-c3cn[nH]c3)cnc2c(Nc2cc(CN3CCCCC3)ns2)n1` [compound 25144294], the IC50 was 4 nM in series [1] and 12 nM in series [2].
Turning to `CN(c1ccc(F)c(NC(=O)c2cccc(OC(C)(C)C#N)c2Cl)c1)c1ccc2nc(NC(=O)C3CC3)sc2n1` [compound 25206346], the IC50 is 1.2 nM in series [1] and 23 nM in series [2].
`CCN1CCN(Cc2ccc(NC(=O)c3ccc(C)c(NC(=O)c4cncc(-c5cccs5)c4)c3)cc2C(F)(F)F)CC1` [compound 42628503]: the IC50 in series [1] (setting [3]) and in series [2] (Table 3) was 500 nM each time.
With `O=C(Nc1cccc(-c2cncc3ccccc23)c1)c1ccccc1NCc1ccncc1` [compound 44368815], the IC50 in series [1] was 1.16 nM; in series [2], 52 nM.
With `c1cnc(NCc2ccncc2)c(-c2nnc(Nc3ccc4c(c3)OCCO4)o2)c1` [compound 44408215], the IC50 in series [1] is 170 nM; in series [2], 29900 nM.
For the compound `CNC(=O)Nc1ccc(CNc2ncsc2C(=O)Nc2ccc3c(c2)OC(F)(F)O3)cn1` [compound 44442418], the values for the IC50 in series [1] and in series [2] were 3 nM and 5 nM, respectively.
Regarding `CO/N=C(\C)c1ccc2c(c1)c1c3c(c4c(c1n2CC(C)C)CCc1nn(C)cc1-4)C(=O)NC3` [compound 44447890], the IC50 in series [1] was 4 nM; in series [2], 8 nM.
On to `c1ccc2sc(-c3ccc(Nc4ncnc5[nH]ccc45)cc3)nc2c1` [compound 44564789], for which the IC50 was 1200 nM in series [1] and 1300 nM in series [2].
With `CC1(C)CC(NC(=O)c2cccc(-c3cc4nccc(Nc5cccc(O)c5)n4n3)c2)CC(C)(C)N1[O]` [compound 46179972], the IC50 was 3.3 nM in series [1] and 5 nM in series [2].
Consider `O=C(Nc1ccccc1)Nc1ccc2c(c1)NC(=O)/C2=C\c1ccc[nH]1` [compound 46182735], for which the IC50 in series [1] is 1 nM; in series [2], 2.3 nM.
`COc1cc2c(Nc3ccc(-c4nc5ccccc5s4)cc3)ncnc2cc1OCCCN1CCN(C)CC1` [compound 46225612]: the IC50 was 12 nM in series [1] and 14 nM in series [2].
On to `COc1cc(C2=C(c3c[nH]c4ccc(I)cc34)C(=O)NC2=O)cc(OC)c1OC` [compound 46231220], for which the IC50 is 24.9 nM in series [1] and 29.5 nM in series [2].
As for `Cc1ccc(C(=O)Nc2cccc(C(F)(F)F)c2)cc1Nc1nc2ccccc2n1-c1cc(NCCC#N)ncn1` [compound 46879446], the IC50 is 245 nM in series [1] and 275 nM in series [2].
`CCNC(=O)Nc1ccc(Oc2ncccc2-c2ccnc(NC)n2)c2ccccc12` [compound 46890315]: the IC50 in series [1] is 48 nM; in series [2] it was 130 nM.
In the case of `COc1ccc(NC(=O)Nc2ccc3c(c2)NC(=O)/C3=C\c2[nH]cc(C(=O)O)c2C)cc1` [compound 46898039], the IC50 in series [1] (setting [3]) and in series [2] (Table 3) was 0.5 nM each time.
Take `COc1cc2c(Nc3cc(O)c(C)cc3F)ncnc2cc1OCC1CCN(C)CC1` [compound 49860186]: the IC50 was 7 nM in series [1] and 25 nM in series [2].
Take `COc1cc2c(Nc3ccc(Br)cc3F)ncnc2cc1OCCCN1CCN(C)CC1` [compound 49860190]: the values for the IC50 in series [1] and in series [2] were 9 nM and 30 nM, respectively.
Consider `CCN(Cc1cc(Nc2nc(C)cn3c(-c4cn[nH]c4)cnc23)sn1)C(C)(C)CO` [compound 53317913], for which the IC50 in series [1] (setting [3]) and in series [2] (Table 3) was 1 nM each time.
For the compound `COc1cc(O)c2c(c1)CCC[C@H](O)CC(=O)/C=C\C[C@H](C)OC2=O` [compound 53324451], the IC50 in series [1] is 5.8 nM; in series [2] it was 7.23 nM.
Consider `COc1cc2c(Nc3cc(Cl)c(Cl)cc3F)ncnc2cc1OC[C@@H]1CN2CCC[C@H]2CO1` [compound 53630919], for which the IC50 in series [1] (setting [3]) and in series [2] (Table 3) was 50 nM throughout.
